Values joined by “and” are separate entries in the source; they are usually repeats but may differ in a detail not shown here. Identical values can stand only once. Like-named read-outs stand apart in the source and are kept apart here.
Legend:
StOASS-B [1] = target: T1, StOASS-B (Salmonella typhimurium, UniProt P29848); experiment: Direct fluorimetric titration of PLP cofactor fluorescence (dissociation constant); format: binding
T1 construct: made in house; host or cells: E. coli
T1 sequence (P29848 1-303): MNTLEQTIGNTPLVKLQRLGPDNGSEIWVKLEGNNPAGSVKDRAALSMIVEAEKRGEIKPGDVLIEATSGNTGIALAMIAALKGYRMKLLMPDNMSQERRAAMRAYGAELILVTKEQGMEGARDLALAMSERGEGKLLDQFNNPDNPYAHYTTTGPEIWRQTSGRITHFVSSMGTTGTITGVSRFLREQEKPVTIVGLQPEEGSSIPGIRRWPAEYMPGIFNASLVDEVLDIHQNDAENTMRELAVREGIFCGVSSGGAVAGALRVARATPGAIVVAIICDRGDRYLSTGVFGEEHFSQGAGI
Protocol: (§1) StOASS-A and StOASS-B, expressed in E. coli, were purified by metal affinity chromatography as described previously. Proteins were more that 95% pure based on SDS-PAGE analysis (data not shown).
(§2) Ligand affinity was measured by direct fluorimetric titrations, monitoring the fluorescence emission spectrum of cofactor PLP upon excitation at 412 nm. 0.1–1 µM OASS was titrated by increasing concentrations of ligand in 100 mM HEPES pH 7.0, 1% DMSO, at 20 °C. The dependence of fluorescence emission intensity on the concentration of compound was fitted to a binding isotherm: I=I0+ΔI·[ligand]/Kd+[ligand] where, I is the fluorescence emission intensity at a given ligand concentration, I 0 is the fluorescence emission intensity in the absence of ligand, ΔI is the amplitude and K d is the dissociation constant. When the K d was lower than the concentration of the protein used in the assay, the dependence of the fluoresecnce emission intensity on ligand concentration was fitted to a quadratic equation that describes tight binding. The fluorescence competitive binding assay, described elsewhere, was used to evaluate whether compounds bind at the active site of the enzyme or to an allosteric site. The assay is based on the formation of a low-affinity, highly fluorescent complex between OASS and 1-ethylcyclopropane-1,2-dicarboxylic acid. Binding of a higher affinity compound to the active site displaces 1-ethylcyclopropane-1,2-dicarboxylic acid and leads to a decrease in the fluorescence emission intensity.

StOASS-A [2] = target: T2, StOASS-A (Salmonella typhimurium, UniProt P0A1E3); experiment: as above; format: binding, Salmonella enterica serovar Typhimurium; details: 100 mM HEPES pH 7.0, 1% DMSO, 20 °C; read-out: OASS-A Kd
T2 construct: made in house; host or cells: E. coli
Protocol: as §1, §2

[3] = system: Escherichia coli ATCC25922; experiment: Minimal inhibitory concentration (CLSI) in medium with limiting cysteine; format: cell-based; details: E. coli ATCC25922, medium with limiting cysteine; data not shown
Protocol: Minimal inhibitory concentration assays were performed according to the CLSI guidelines (Clinical and Laboratory Standards Institute; Performance Standards for Antimicrobial Susceptibility Testing; Twenty-Fourth Informational Supplement; CLSI document M100-S24, CLSI; 2014.). The compounds were dissolved in DMSO to obtain a stock solution 100-fold more concentrated than the desired higher concentration and then 10 serial dilutions were performed. One microliter of each dilution was transferred to the microtiter plate.
Escherichia coli ATCC25922 was grown until log phase on liquid Mueller–Hinton broth at 37 °C in a shaker at 225 rpm. Bacterial suspension was then centrifuged at 2500 rpm for 15 min and diluted with phosphate buffer to obtain a solution with a turbidity of about 0.5 McFarland. Bacterial suspension was further diluted (1:100) with fresh LB 20%. Fifty microliters of the bacterial suspension containing 10^6 CFU/mL were inoculated into each well, to obtain a final concentration of 5 × 10^5 CFU/mL. Each plate contained growth control wells and sterility check wells.
We investigated the ability of the new set of compounds to interfere with bacterial growth.

StOASS-B [4] = target: T1, StOASS-B; experiment: Steady-state enzyme activity assay, discontinuous ninhydrin cysteine determination; format: biochemical
Protocol: as §1
(§3) Enzyme activity under steady-state conditions was measured by a discontinuous method as described previously. Briefly, the reaction was carried out in 100 mM HEPES pH 7.0 in the presence of 6 nM OASS, 60 nM BSA to prevent enzyme adhesion to tube wall, 1 mM OAS (equal to the K m value of this subsrate), 0.6 mM Na2S (a saturating concentration), 1% DMSO and variable concentrations of inhibitor. Reaction was stopped at time intervals by the addition of acetic acid and concentration of cysteine was determined by a modification of the ninhydrin assay. The fractional velocity as a function of inhibitor concentration was determined and IC50 was calculated by the following equation: vi/v0=1/1+(I/IC50) where, v 0 is the reaction velocity in the absence of inhibitor and v i is reaction velocity in the presence of inhibitor at concentration [I].
(§4) For a competitive inhibitor against OAS the IC50 measured under these conditions is about 2⋅K d.

StOASS-A [5] = target: T2, StOASS-A; experiment: as above; format: biochemical, Salmonella enterica serovar Typhimurium; details: 1 mM OAS, 0.6 mM Na2S, 6 nM OASS, 100 mM HEPES pH 7.0, 1% DMSO
Protocol: as §1, §3, §4

E.coli = system: E.coli; parameters: method as in manuscript in preparation; details: ref manuscript in preparation, cited from earlier work

T2 sequence (P0A1E3 whole entry): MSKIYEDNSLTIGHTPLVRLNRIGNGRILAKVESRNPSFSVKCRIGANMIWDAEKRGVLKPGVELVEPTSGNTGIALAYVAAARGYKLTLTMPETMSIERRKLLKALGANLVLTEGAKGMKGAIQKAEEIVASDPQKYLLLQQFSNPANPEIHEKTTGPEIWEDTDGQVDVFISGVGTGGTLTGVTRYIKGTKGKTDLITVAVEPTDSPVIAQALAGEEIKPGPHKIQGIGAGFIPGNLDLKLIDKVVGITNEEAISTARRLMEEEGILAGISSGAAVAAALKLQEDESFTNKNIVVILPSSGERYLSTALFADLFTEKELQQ

Molecule | Kd (StOASS-B [1]) | Kd (StOASS-A [2]) | IC50 (StOASS-B [4]) | IC50 (StOASS-A [5]) | other results
O=C(O)C1(Cn2cccc2)CC1c1ccccc1 (centres unmarked) [Compound 49, 1-((1H-pyrrol-1-yl)methyl)-2-phenylcyclopropane-1-carboxylic acid] | 22 ± 2 µM | 0.5 ± 0.1 µM | – | – | –
Cc1ccc(C[C@]2(C(=O)N(C)C3CCOCC3)C[C@H]2c2ccccc2)cc1 [Compound 16, (1R,2S)-1-N-methyl-1-(4-methylbenzyl)-2-phenyl-N-(tetrahydro-2H-pyran-4-yl)cyclopropane-1-carboxamide] | – | – | 137 ± 10 µM | 17.2 µM and 17 µM | Interference with bacterial growth (MIC) [3]: none of the synthesised compounds was able to interfere significantly with bacterial growth
C#CCNC(=O)[C@@]1(Cc2ccc(C)cc2)C[C@H]1c1ccccc1 [Compound 21, (1R,2S)-1-(4-methylbenzyl)-2-phenyl-N-(prop-2-yn-1-yl)cyclopropane-1-carboxamide] | – | – | > 100 µM | > 100 µM | –
Cc1ccc(C[C@]2(C(=O)NCc3nccn3C)C[C@H]2c2ccccc2)cc1 [Compound 20, (1R,2S)-1-N-((1-methyl-1H-imidazol-2-yl)methyl)-1-(4-methylbenzyl)-2-phenylcyclopropane-1-carboxamide] | – | – | > 100 µM | > 100 µM | –
Cc1ccc(C[C@]2(C(=O)NCc3cccs3)C[C@H]2c2ccccc2)cc1 [Compound 19, (1R,2S)-1-(4-methylbenzyl)-2-phenyl-N-(thiophen-2-ylmethyl)cyclopropane-1-carboxamide] | – | – | > 100 µM | > 100 µM | –
Cc1ccc(C[C@@]2(C(=O)O)C[C@H]2c2ccccc2)cc1 [II, reference compound] | 0.5 ± 0.1 µM | 0.03 ± 0.01 µM | – | – | Inhibitory activity on cell growth (E.coli; E.coli, minimal medium): failed to show appreciable inhibitory activity on cell growth; MIC with permeabilizing agent (E.coli; co-administration of sub-lethal concentrations of polymyxin B nonapeptide (PMBN)): led to a measurable MIC
N#C[C@@]1(Cc2ccccc2)C[C@H]1c1ccccc1 [Compound 28, (1R,2S)-1-benzyl-2-phenylcyclopropanecarbonitrile] | – | – | – | > 250 µM | –
c1ccc(C[C@]2(c3nnn[nH]3)C[C@H]2c2ccccc2)cc1 [Compound 29, (1R,2S)-5-(1-benzyl-2-phenylcyclopropyl)-1H-tetrazole] | – | 90 ± 14 µM | – | – | –
Cc1ccc(C[C@]2(C(=O)NCC3CCCO3)C[C@H]2c2ccccc2)cc1 (stereo partly drawn) [Compound 22, (1R,2S)-1-(4-methylbenzyl)-2-phenyl-N-((tetrahydrofuran-2-yl)methyl)cyclopropane-1-carboxamide] | – | – | > 100 µM | > 100 µM | –
CCN1CCCC1CNC(=O)[C@@]1(Cc2ccc(C)cc2)C[C@H]1c1ccccc1 (stereo partly drawn) [Compound 17, (1R,2S)-1-N-((1-ethylpyrrolidin-2-yl)methyl)-1-(4-methylbenzyl)-2-phenylcyclopropane-1-carboxamide] | – | – | > 100 µM | > 100 µM | –
O=C(O)C1(Cn2cncn2)CC1c1ccccc1 (centres unmarked) [Compound 50, 1-((1H-1,2,4-triazol-1-yl)methyl)-2-phenylcyclopropane-1-carboxylic acid] | 250 ± 14 µM | 18 ± 5 µM | – | – | –
1-(4-methylbenzyl)-2-(pyridin-4-yl)cyclopropane-1-carboxylic acid [Compound 5] | – | 0.4 ± 0.1 µM | – | – | Kd (StOASS-B [1]; 100 mM HEPES pH 7.0, 1% DMSO, 20 °C, read-out: OASS-B Kd): 6.1 ± 0.5 µM; Interference with bacterial growth (MIC) [3]: none of the synthesised compounds was able to interfere significantly with bacterial growth
Cc1ccc(CC2(C(=O)O)CC2c2ccc(CNC(C)C)cc2)cc1 (centres unmarked) [Compound 10, 2-(4-((isopropylamino)methyl)phenyl)-1-(4-methylbenzyl)cyclopropane-1-carboxylic acid] | – | 155 ± 5 µM | – | – | –
O=C(O)C1(Cc2ccncc2)CC1c1ccccc1 (centres unmarked) [Compound 33, 2-phenyl-1-(pyridin-4-ylmethyl)cyclopropane-1-carboxylic acid] | 275 ± 42 µM | 24 ± 2 µM | – | – | Interference with bacterial growth (MIC) [3]: none of the synthesised compounds was able to interfere significantly with bacterial growth
Cc1ccc(CC2(C(=O)O)CC2c2ccc(N)cc2)cc1 (centres unmarked) [Compound 12, 2-(4-aminophenyl)-1-(4-methylbenzyl)cyclopropane-1-carboxylic acid] | 5.7 ± 0.7 µM | 1.4 ± 0.3 µM | – | – | Interference with bacterial growth (MIC) [3]: none of the synthesised compounds was able to interfere significantly with bacterial growth
Cc1ccc(C[C@]2(C(=O)NCc3ccccc3)C[C@H]2c2ccccc2)cc1 [Compound 18, (1R,2S)-1-N-benzyl-1-(4-methylbenzyl)-2-phenylcyclopropane-1-carboxamide] | – | – | – | > 100 µM | IC50 (StOASS-B [4]; read-out: OASS-B IC50, 1 mM OAS, 0.6 mM Na2S, 6 nM OASS, 100 mM HEPES pH 7.0, 1% DMSO): > 100 µM
Cc1ccc(CC2(C(=O)O)CC2c2ccc([N+](=O)[O-])cc2)cc1 (centres unmarked) [Compound 8, 1-(4-methylbenzyl)-2-(4-nitrophenyl)cyclopropane-1-carboxylic acid] | 145 ± 2 µM | 61 ± 6 µM | – | – | –
O=C(O)C1(Cn2ccnc2)CC1c1ccccc1 (centres unmarked) [Compound 47, 1-((1H-imidazol-1-yl)methyl)-2-phenylcyclopropane-1-carboxylic acid] | 397 ± 42 µM | 7.6 ± 0.5 µM | – | – | –
O=C(O)C1(Cn2cccn2)CC1c1ccccc1 (centres unmarked) [Compound 48, 1-((1H-pyrazol-1-yl)methyl)-2-phenylcyclopropane-1-carboxylic acid] | 96 ± 7 µM | 1.5 ± 0.2 µM | – | – | –

Reference: PMC6217552, “Refining the structure−activity relationships of 2-phenylcyclopropane carboxylic acids as inhibitors of O-acetylserine sulfhydrylase isoforms” (Journal of Enzyme Inhibition and Medicinal Chemistry, 2018)
